According to US7417039B2, “Use of substituted azetidinone compounds for the treatment of sitosterolemia” (Schering Corporation, priority 2001, dated 2008):

Legend:
[1] = tested on: plasma plant sterols (sitosterol and campesterol) and LDL-C; experiment: In vivo evaluation in humans: randomized, double-blind, placebo-controlled 8-week trial in homozygous sitosterolemia; design: species or system human; settings: homozygous sitosterolemia patients, 8 weeks
Experimental: In a randomized multicenter, double-blind, placebo-controlled, 8-week trial, 37 human patients previously diagnosed with homozygous sitosterolemia were randomized to receive Compound VIII (n=30) or placebo (n=7): • Treatment A—Compound VIII given orally as 1 dose (10 mg) per day, • Treatment B—Placebo (matching image of Compound VIII 10 mg) given orally as 1 dose per day, every morning for 8 consecutive weeks.
During the trial, subjects were instructed to maintain (as a minimum) a National Cholesterol Education Program (NCEP) Step 1 diet
Patients were instructed to maintain a diary of food intake and monitored prior to randomization, at baseline and during therapy. Results of the central diet analysis for each subject were reported as a RISCC score (Ratio of Ingested Saturated fat and Cholesterol to Calories) and as dietary components. RISCC scores indicate the potential for a diet to influence plasma lipid levels. A score ranging from 14 to 20 correlates with a NCEP step 1 diet.
Low-Density-Lipoprotein-Cholesterol (LDL-C) results were reported as direct LDL-C (plasma concentration was determined following a standard ultra centrifugation/precipitation procedure; lipid and lipoprotein analysis, see Manual of Laboratory Operations: Lipid Research Clinics Program Report. Washington, D.C.: US Department of Health, Education, and Welfare publication; 1974. NIH 75-628, vol 1, which is incorporated by reference herein or beta-quantification) and calculated LDL-C (plasma concentration; based on Freidewald equation: LDL-C=Total cholesterol minus (Triglycerides divided by 5) minus High-density-lipoprotein cholesterol (HDL-C)).
Total cholesterol and Triglycerides were determined enzymatically using a Hitachi 747 analyzer; see, Steiner P M, Freidel J, Bremner W F, Stein E A: Standardization of micromethods for plasma cholesterol, triglyceride and HDL-cholesterol with the Lipid Clinics' methodology [abstract]. J Clin Chem Clin Biochem 1981;19:850, which is incorporated by reference herein.
HDL-C was determined enzymatically after heparin and magnesium precipitation; see, Steele W B, Koehle D F, Azar M M, Blaszkowski T P, Kuba K, Dempsey M E: Enzymatic determinations of cholesterol in high density lipoprotein fractions prepared by precipitation technique. Clin Chem 1976;22:98-101, which is incorporated by reference herein.
Plasma plant sterols (sitosterol and campesterol) and LDL-C were assessed at baseline (Day 1) and at endpoint (average of Weeks 6 and 8 values). See: Salen, Gerald; Shore, Virgie; Tint, G S; Forte, T: Shefer, S; Horak, I; Horak, E; Dayal, B; Nguyen, L.; Batta, A K; Lindgren, F T; Kwiterovich, Jr, P O, “Increased sitosterol absorption, decreased removal and expanded body pools compensate for reduced cholesterol synthesis in sitosterolemia with xanthomatosis”, J Lipid Res, Vol. 30, pp 1319-30, (1989) and Lutjohann, D; Bjorkhem, I; Beil, U F, and von Bergmann, K, “Sterol absorption and sterol balance in phytosterolemia evaluated by deuterium-labeled sterols: effect of sitostanol treatment” J Lipid Res. Vol. 36:(8), pp 1763-73, (1995), each of which is incorporated by reference herein.

Sitosterol Absorption = experiment: In vivo evaluation in mice: [3H]-sitosterol absorption and hepatic accumulation
Experimental: In vivo activity of compound VIII in mice was determined by the following procedure:
Male ApoE knockout mice, age 6 wks, were received from Jackson Laboratory along with age-matched C57BL/J. The mice were housed 5 per cage, normal light cycle, normal diet. Twenty-six mice of each variety were weighed and housed, 1 per cage, in suspended wire cages with normal light cycle, normal diet. After three days, the mice were reweighed. Based on body weight, the mice were divided into 5 groups for each type of treatment:
Control (corn oil) and Compositions including Compound VIII at 0.3, 1, 3, and 10 mg/kg of body weight per day.
Preparation of Compositions including Compound VIII based on 22 g average mouse body weight:
The mice were gavaged using a feeding needle 30 min before receiving ^14C-cholesterol (NEN, NEC 018) and ^3H-sitosterol (NEN, CUS 030T). The radioactive dose was prepared from: • 114 μL ^3H-sitosterol stock (1 μCi/μL in ethanol); • 1.425 mL ^14C-cholesterol stock (40 μCi/mL in ethanol); • 5.7 mg cholesterol, Sigma C 8667; • 5.7 mg β-sitosterol, Sigma, S 1270; • The ethanol was removed under N2; • 5.7 ml of corn oil was added, and the mixture was warmed to 60° C.; and shaken for 1 hr.
Each 0.1 ml dose contained 2 μCi ^3H-sitosterol, 0.1 mg cold (non radioactive) sitosterol; 1 μCi ^14C-cholesterol, and 0.1 mg cold (non radioactive) cholesterol. Radioactive content was verified: 5×10 μl counted in Beckman LSC (liquid […] counter). Tritiated sitosterol was used as an “unabsorbable” marker to compare to the absorption of [^14C]-cholesterol in a mouse fecal isotope ratio cholesterol absorption model.
On the 4th, 5th, and 6th days, feces were collected and stored at −20° C. in vials just before dosing with Control or Compound VIII late in the day. Termination of the experiment on the 7th day involved sacrifice by exsanguination, removal and weighing of the liver. 3×˜250 mg samples of liver were put in vials. The liver samples were digested with 1 ml of 1N NaOH at 60° overnight, neutralized with 0.1 ml 12N HCl and counted for ^14C and ^3H. The blood samples were allowed to clot at room temp for 1 hr, then centrifuged at 1000 G for 15 min. The serum was analyzed for total cholesterol (see Wako C I I; see Allain C C, Poon L S, Chan C S G, Richmond W, Fu P C. Enzymatic Determination of Total Serum Cholesterol. Clin. Chem. 1974; 20:470-475, which is incorporated by reference herein) and radioactivity (2×50 μL). Fecal samples were analyzed for radioactivity by combustion in a Packard Oxidizer followed by Beckman LSC.

[2] = 10 mg orally once daily, endpoint = average of Weeks 6 and 8

**Q.** With `O=C1[C@H](CC[C@H](O)c2ccc(F)cc2)[C@@H](c2ccc(O)cc2)N1c1ccc(F)cc1` [Compound VIII, ezetimibe] as the compound, how does the “mean (S.E.) percent change from Baseline at endpoint in plasma Campesterol” value [1, 2] read?
**A.** −24.3% (2.9%)

**Q.** What about the “mean (S.E.) percent change from Baseline at endpoint in plasma Sitosterol” value [1, 2] of the same compound?
**A.** −21.0% (2.8%)

**Q.** And the “percent change from Baseline at endpoint in LDL-C (mean, 95% CI)” value [1, 2]?
**A.** −13.6% (−21.7%, −5.5%)

**Q.** And the “reduction in campesterol compared to placebo” value ([1]; 10 mg per day)?
**A.** significant (p<0.001) reduction

**Q.** What about the “reduction in sitosterol compared to placebo” value ([1]; 10 mg per day) of the same compound?
**A.** significant (p<0.001) reduction

**Q.** And the tolerability ([1]; 10 mg per day)?
**A.** well tolerated

**Q.** And the “% of administered dose absorbed of [^3H]-sitosterol in liver (total animal liver), average” value (from here on “% of administered dose absorbed … average”) (Sitosterol Absorption; ApoE KO mice, 0.3 mg/kg/day by gavage in corn oil)?
**A.** 0.1863%

**Q.** What about the “% of administered dose absorbed … average” value (Sitosterol Absorption; ApoE KO mice, 1 mg/kg/day by gavage in corn oil) of the same compound?
**A.** 0.1019%

**Q.** And the “% of administered dose absorbed … average” value (Sitosterol Absorption; ApoE KO mice, 3 mg/kg/day by gavage in corn oil)?
**A.** 0.0772%

**Q.** And the “% of administered dose absorbed … average” value (Sitosterol Absorption; ApoE KO mice, 10 mg/kg/day by gavage in corn oil)?
**A.** 0.0780%

**Q.** And the “absorption and hepatic accumulation of sitosterol” value (Sitosterol Absorption; C57BL/6J and Apo E KO mice, 0.3-10 mg/kg/day)?
**A.** dose dependently inhibit

**Q.** And the “% of administered dose absorbed … average” value (Sitosterol Absorption; C57BL/6J mice, 0.3 mg/kg/day by gavage in corn oil)?
**A.** 0.1093%

**Q.** What about the “% of administered dose absorbed … average” value (Sitosterol Absorption; C57BL/6J mice, 1 mg/kg/day by gavage in corn oil) of the same compound?
**A.** 0.0588%

**Q.** And the “% of administered dose absorbed … average” value (Sitosterol Absorption; C57BL/6J mice, 3 mg/kg/day by gavage in corn oil)?
**A.** 0.0489%

**Q.** And the “% of administered dose absorbed … average” value (Sitosterol Absorption; C57BL/6J mice, 10 mg/kg/day by gavage in corn oil)?
**A.** 0.0552%
